Data taken from publication PMC10896388, “Hybrid Allosteric Modulators of M1 Muscarinic Receptors Enhance Acetylcholine Efficacy and Decrease Locomotor Activity and Turning Behaviors in Zebrafish” (Research Square, 2024).
pEC50, pKd: −log10 of the molar value. Entries after “also recorded” stand apart in the source; their conditions may differ. Like-named read-outs stand apart in the source and are kept apart here.

How the values were obtained:
[1] = system: wild-type (AB) zebrafish (Danio rerio); assay type: in vivo; conditions: zebrafish larvae; 30-minute spontaneous swimming period; mean ± s.e.m., N = 12; test concentration not given
[2] = system: wild-type (AB) zebrafish (Danio rerio); assay: Maximum tolerated concentration (MTC) determination in zebrafish larvae; assay type: in vivo; conditions: for MTC (maximum tolerated concentration): 5 dpf zebrafish larvae, after 24-hr exposure; for signs of toxicity (in words): zebrafish, concentrations up to 30 μM, the highest concentration tested
Method: Determination of maximum tolerated concentration (adapted from Berghmans)[52] was completed by placing 5 days post fertilization (dpf) wild-type zebrafish larvae in a 24 well plate at 6 fish per well, and one compound concentration per well. […] Death was determined by the absence of heartbeat. Additional endpoints were used to assess toxicity at non-lethal concentrations such as startle capacity (poke stimulus), abnormalities in swimming behavior (loss of dorsoventral balance), and gross morphological deformities (bent body). […] The MTC determination was used to select three doses of each compound (low, medium, high dose) to be used in behavioral assays.

[3] = target: T1, human M1 muscarinic receptors (Homo sapiens, UniProt P11229); assay: [3H]-arachidonic acid release in CHO cells expressing M1 receptors, with and without ACh; assay type: cell-based; parameters: expressed in transfected cells; host or cells: CHO cells (stably transfected CHO-hM1, from Mark Brann's laboratory, NIH); conditions: for intrinsic agonist activity (in words): [3H]AA release in the absence of ACh, 10 µM; for modulation of ACh response (in words): modulators at 10 µM (amiodarone 30 µM)
T1 sequence (P11229 1-460): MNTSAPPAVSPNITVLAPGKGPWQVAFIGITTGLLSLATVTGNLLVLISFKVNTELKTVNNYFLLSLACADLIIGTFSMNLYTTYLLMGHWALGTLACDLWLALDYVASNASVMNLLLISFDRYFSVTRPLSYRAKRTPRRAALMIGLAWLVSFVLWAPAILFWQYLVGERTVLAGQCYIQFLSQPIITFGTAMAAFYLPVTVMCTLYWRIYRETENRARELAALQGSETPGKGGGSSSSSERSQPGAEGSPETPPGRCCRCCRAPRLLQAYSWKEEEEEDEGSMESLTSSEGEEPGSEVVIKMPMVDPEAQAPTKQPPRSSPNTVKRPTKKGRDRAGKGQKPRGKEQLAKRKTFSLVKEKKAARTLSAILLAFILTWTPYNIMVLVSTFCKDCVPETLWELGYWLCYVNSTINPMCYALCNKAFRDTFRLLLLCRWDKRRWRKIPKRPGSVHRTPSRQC
Method: CHO cells expressing human M1 muscarinic receptors were cultured at 37°C in a 5% CO2 atmosphere in F12 medium supplemented with 5% fetal bovine serum, 100 units/mL penicillin, and 100µg/mL streptomycin. These cells were obtained from Mark Brann’s laboratory when they were at NIH and have been in use by us and others for many years.[49]
Measurement of [^3H]AA release was performed as described in Stahl and Ellis.[24] Stably transfected CHO-hM1 cells were seeded on 24-well plates (Greiner Bio-One GmbH, Frickenhausen, Germany) at a density of 5.0 × 10^4 cells/well in 0.5 ml of F-12 medium. Cells were incubated until they attached (approximately 3 h), followed by the addition of [^3H]AA to a final concentration of 0.05 µCi of [^3H]AA per well. The cells were then grown for 16 to 20 h before the assay was performed. [^3H]AA release was measured in Eagle’s basal medium with 20 mM HEPES and 2 mg/ml fatty acid-free bovine serum albumin (EM-BSA). Cells were rinsed twice with EM-BSA, followed by the addition of EM-BSA media containing experimental agents and incubated for 1 h at 37°C. The assay was terminated by aspiration of the media, and the amount of [^3H]AA released was determined by liquid scintillation counting (Beckman-Coulter LS6500). […]
Tabulated [^3H]AA release data are represented as a fraction of maximal release elicited by ACh or as the fraction of release elicited by the relevant concentration of ACh alone, as indicated. Dose-response curves were normalized to the maximal response of ACh without allosteric ligand. Where indicated, response curves were analyzed using the empirical four-parameter equation: […] where X is the concentration of the ligand used, Y is the amount of response, C50 is the concentration of the ligand that produces 50% of the maximal effect, Top and Bottom are the top and bottom plateaus of the curve, and n is related to the Hill slope for the curve. Where indicated, families of response curves were analyzed according to an allosteric operational model:[50],[51]

[4] = target: T1, human M1 muscarinic receptors; assay: Full ACh dose-response curves of [3H]AA release fitted to an allosteric operational model
Method: Tabulated [^3H]AA release data are represented as a fraction of maximal release elicited by ACh or as the fraction of release elicited by the relevant concentration of ACh alone, as indicated. Dose-response curves were normalized to the maximal response of ACh without allosteric ligand. Where indicated, response curves were analyzed using the empirical four-parameter equation: Y=Top+Bottom−Top/1+X/C50^n where X is the concentration of the ligand used, Y is the amount of response, C50 is the concentration of the ligand that produces 50% of the maximal effect, Top and Bottom are the top and bottom plateaus of the curve, and n is related to the Hill slope for the curve. Where indicated, families of response curves were analyzed according to an allosteric operational model:[50],[51]
where EM is the maximal response; A is the concentration of ACh; B is the concentration of the allosteric ligand; τA and τB represent the operational efficacies of A and B, respectively; KA and KB are the equilibrium dissociation constants of A and B; and α and β represent the cooperativities between A and B in terms of binding and activation, respectively. Curve-fitting was carried out with GraphPad Prism, version 5.0 or 6.0 (San Diego CA).

[5] = system: wild-type (AB) zebrafish (Danio rerio); assay: animal or person; assay type: in vivo; conditions: for effect on locomotor activity and turning behaviors (in words) / concentration with significant effects on zebrafish behavior: AB zebrafish; for effect on locomotor activity and turning behaviors (in words): 30-minute spontaneous swimming period; for concentration with significant effects on zebrafish behavior: compared with BQCA; for pEC50: Danio rerio, AB zebrafish larvae; for Therap. Index: zebrafish, apparently MTC / MEC
Method: The movement of larval zebrafish was monitored with the Noldus behavior recording system (Noldus Information Technology, Leesburg VA) and quantified using EthoVision® XT 15 software (Noldus Information Technology, Leesburg VA). Five-dpf zebrafish larvae were exposed to a range of nonlethal concentrations of compounds in a 24-well plate with appropriate controls. The plate was immediately placed in the incubator for a 30-minute exposure period. After 30 minutes, the plate was transferred to the Noldus system and swimming behavior was recorded in 100% light for 30 minutes to measure spontaneous swimming behavior. The light was switched off for 10 minutes (dark period) and then switched on for 10 minutes (light period), which was then repeated for two additional cycles. In total, the larvae were exposed to three cycles of alternating 10-minute dark and light periods (100% darkness-to-100% light). Each drug challenge was conducted on three separate plates with n = 6 larvae/dose/plate.
Absolute turn angle (TA) and angular velocity provided measures of the extent of turning behavior, while the intra-individual variance of turn angle quantified how consistently (low variance) or inconsistently (high variance) fish turned. A lowered intra-individual variance of turning reflected repeatedly performing the same turning behavior, a stereotypy.[53]
All data for exposure and the behavioral end points were analyzed by one-way ANOVA (factor: drug concentration) followed by a Dunnett’s multiple comparisons test for post hoc significance between drug concentration and control group. Statistically significant differences are noted as follows; *, p < 0.05; **, p < 0.01; ***, p < 0.001.

[6] = best-fit parameter, allosteric operational model, Em set to 2.0, ACh as agonist
[7] = read-out: EC50 for decreasing locomotor activity
[8] = read-out: EC50 for decreasing repetitive behaviors (increasing angular velocity)

Row | Compound | Angular Velocity, percentage change relative to controls [1] [%] | Distance Moved, percentage change relative to controls [1] [%] | Variance Turn Angle, percentage change relative to controls [1] [%] | MTC (maximum tolerated concentration) [2] [µM] | intrinsic agonist activity (in words) [3] | increase in mAChR activity compared to treatment with ACh alone ([3]; [3H]AA release, CHO-hM1, predominantly at higher doses of ACh (Table 2, not available)) [%] | pKd [4] | Activation cooperativity, A-B, β [4, 6] | Binding cooperativity, A-B, α [4, 6] | Operational Efficacy-B, τB [4, 6] | effect on locomotor activity and turning behaviors (in words) [5] | modulation of ACh response (in words) ([3]; [3H]AA release, CHO-hM1) | signs of toxicity (in words) [2] | Kb [4] [nM] | concentration with significant effects on zebrafish behavior [5] [µM] | pEC50 [5, 7] | pEC50 [5, 8] | Therap. Index [5] | MEC ([5]; zebrafish larvae, locomotor behaviors, abbreviation not defined in the paper) [µM]
1 | CCCCc1oc2ccccc2c1C(=O)c1cc(I)c(OCCN(CC)C(=O)c2ccccc2)c(I)c1 [Compound 5b, N-(2-(4-(2-butylbenzofuran-3-carbonyl)-2,6-diiodophenoxy)ethyl)-N-ethylbenzamide] | 80.4 ± 11.5 | 87.7 ± 13.5 | 77.8 ± 9.3 | 10 | lacked intrinsic activity | 80 |  |  |  |  |  |  |  |  |  |  |  |  | 
2 | CCN(CC)CCOc1ccc(CN2C(=O)C(=O)c3ccccc32)cc1 [Compound 7, 1-(4-(2-(diethylamino)ethoxy)benzyl)indoline-2,3-dione] |  |  |  | 10 | lacked intrinsic activity |  | 6.20 | 0.99 ± 0.12 | 0.18 ± 0.095 | 0.032 ± 0.02 | not effective in reducing locomotor activity or elevating angular velocity or variance of turn angle | primarily decreased potency and slightly enhanced the efficacy of ACh activity; also recorded: decreased ACh potency with little impact on ACh efficacy |  |  |  |  |  |  | 
3 | COc1c(I)cc(CN2C(=O)C(=O)c3ccccc32)cc1I [Compound 8a, 1-(3,5-diiodo-4-methoxybenzyl)indoline-2,3-dione] |  |  |  | > 30 |  |  | 6.26 |  | 0.69 ± 0.24 | 0.17 ± 0.03 | reduced locomotor activity | significant enhancement of ACh activity; also recorded: dramatically enhanced ACh efficacy | neither produced any signs of toxicity | 550 | 1 | 5.25 | 5.59 | > 100 | 
4 | COc1c(Br)cc(CN2C(=O)C(=O)c3ccccc32)cc1Br [Compound 8c, 1-(3,5-dibromo-4-methoxybenzyl)indoline-2,3-dione] |  |  |  | > 30 |  |  | 5.53 |  | 0.98 ± 0.39 | 0.33 ± 0.06 |  | dramatically enhanced ACh efficacy | neither produced any signs of toxicity | 3000 | 1 | 6.00 | 5.96 |  | 
5 | VU0238408 [reference compound] | 180.1 ± 20.3 | 34.6 ± 4.0 | 146.6 ± 12.4 | 30 |  |  |  |  |  |  |  |  |  |  |  |  |  | 30 | 1
